Results on five molecules are retold here after patent US20040213757A1, “Water soluble wortmannin derivatives” (Wyeth Holdings Corporation, priority 2003, published 2004).

The test system of one data set is C3H mammary model. The conditions noted are these: cited from earlier work.
The next data set concerns PI3K. The conditions noted are these: cited from earlier work.
In data set [1] the test system is H-157. The data set can be described thus: MTS cell proliferation assay, H-157. To be noted: three days of treatment. The format is cell-based, human. On the procedure:
(§1) A549 (human non-small cell lung cancer) and H-157 cell lines were purchased from American Type Culture Collection (ATCC) (Rockville, Md.). Cells were cultured in RPMI Medium 1640 containing 10% fetal bovine serum (FBS) in a 37° C. incubator containing 5% CO2. All cell culture reagents were purchased from Gibco-BRL (Grand Island, N.Y.). Cells were plated in 96-well culture plates at about 3000 cells per well. One day following plating, water-soluble drug-polymer conjugates or the vehicle controls were added to cells. Proliferation assays were performed three days post initiation of treatment. For the non-radioactive cell proliferation assay, viable cell densities were determined by measuring metabolic conversion (by viable cells) of the dye MTS tatrazolium dye, a cell proliferation assay known by one of skill in the art (MTS assay), a previously established cell proliferation assay. The assay was performed using assay kit purchased from Promega Corp. (Madison, Wis.). The assay plates were incubated for 1-2 hours and the results were read in a 96-well format plate reader by measuring absorbance at 490 nm. For the thymidine incorporation assay, cells were labeled with [methyl-^3H]-thymidine (PerkinElmer Life Sciences, Boston, Mass.) for 5 hours. Cells were then harvested onto glass-fiber filter membranes and counted in a Wallac 1205 Betaplate liquid scintillation counter. Effect of each drug treatment was calculated as a percentage of control cell growth obtained from vehicle-treated cells grown in the same plate.

Data set [2] concerns A549 (human non-small cell lung cancer). The experiment in a line: Thymidine incorporation proliferation assay, A549. The class given is cell-based. The conditions noted are these: three days of treatment. As to the method:
as §1

For data set [3] the test system is unchanged. The experiment in a line: MTS cell proliferation assay, A549. The format is cell-based. The conditions noted are these: three days of treatment. As to the method:
as §1
In general terms: Tetrazolium dyes change colour on reduction, which living cells bring about.

The test system of data set [4] is H-157. The experiment in a line: Thymidine incorporation proliferation assay, H-157. The format is cell-based, human. The conditions noted are these: three days of treatment. On the procedure: as §1
For orientation: Incorporation of labelled thymidine or its analogues reports DNA synthesis.

The subject of another data set is U87MG glioblastoma. The conditions noted are these: for Tumor Volume t/c, day 0 / Tumor Volume, mean, day 0 / Tumor Volume t/c, day 4 / Tumor Volume, mean, day 4 / Tumor Volume t/c, day 7 / Tumor Volume, mean, day 7 / Tumor Volume t/c, day 11 / Tumor Volume, mean, day 11 / Tumor Volume t/c, day 14 / Tumor Volume, mean, day 14 / Tumor Volume t/c, day 17 / Tumor Volume, mean, day 17: 0.7 mg/kg IV, d 0-4. On the procedure: A tumor cell line for brain tumor, PTEN (−/−) U87MG Glioma was implanted in mice. The mice were dosed IV on days 0-4.
In this experiment, U87MG glioma growing as subcutaneous xenografts in nude mice were staged on day 0, and dosed on days 0-4 at 0.15, 0.5, 1.5, 5 and 15 mg/kg/dose of a wortmannin derivative of this invention.
In the U87MG glioma study shown in FIG. 3, a wortmannin derivative of this invention was dosed IV on days 0-4. Paclitaxel was dosed IP on days 0 and 7. The MTD of paclitaxel is 60 mg/kg/dose following a weekly dosing schedule. Mice were treated with a wortmannin derivative of this invention at 1 mg/kg/dose, paclitaxel at 30 and 60 mg/kg/dose, or treated in combination with a wortmannin derivative of this invention at 1 mg/kg/dose and paclitaxel at 30 mg/kg/dose.
A wortmannin derivative at 1 mg/kg/dose and Peg-rapa at 0.1 mg/kg/dose were dosed IV either alone or in combination on days 0-4.
Balb/c nu/nu (athymic) mice were housed in accordance with Association for Accreditation of Laboratory Animal Care (AALAACC) standards for at least one week prior to their experimental usage. The animals were housed in microisolator cages and handled only in a laminar flow hood. All food and water was autoclaved. Mice were inoculated on the left flank with a volume of 200 μL using a 25-26 gauge sterile needle and syringe with a suspension of cells. The cells were resuspended in full growth media and delivered at 10 million cells per mouse. When the resulting tumors reached the appropriate size for staging, the mice were regrouped to produce equivalent sized groups with n=10. Once staged, the mice were dosed 0.2 cc iv with the water-soluble drug-polymer conjugate II and water-soluble drug-polymer conjugate IV resuspended in sterile, distilled water. Wortmannin and other non-pegylated water-soluble drug-polymer conjugate were prepared 10 mg/ml in Dimethyl sulfoxide (DMSO) and diluted with Phosphate Buffered Saline (PBS) right before injecting into the mouse. Treatment was administered as a daily×5 dosing schedule repeated every 2 weeks until the tumors reach 10% of the animal's weight. The growth of the solid tumor was monitored twice a week for the duration of the experiment. Tumor size was quantitated using sliding vernier calipers and the mass was calculated using the formula […]. Conversion from cubic mm to mg was made assuming unit density. Tumors were not allowed to grow larger than 15% of the mouse's weight, at which point the mouse was euthanized.

Usually IC50 stands for the point on the concentration scale where inhibition reaches its midpoint.

≈ marks a conversion by molar mass, not a printed value.

Turning to `COCC1OC(=O)c2coc3c2C1(C)C1=C(C3=O)C2CCC(O)C2(C)CC1OC(C)=O` (stereo not drawn) [17β-Hydroxywortmannin], the “antitumor activity in the C3H mammary model” value with C3H mammary model (dose of 0.5 mg/kg) was “no inhibition”. The “toxicity in the C3H mammary model” value in the data set with C3H mammary model (dose of 1.0 mg/kg) is listed as “toxicity”. In the data set on PI3K (PI3K), the “increase in activity relative to wortmannin” value was 10 fold. For the same molecule, in the data set with PI3K, the IC50 is 500 pM.

Take `COC[C@H]1OC(=O)c2coc3c2[C@@]1(C)C1=C(C3=O)[C@@H]2CCC(=O)[C@@]2(C)C[C@H]1OC(C)=O` [Wortmannin]: the IC50 with H-157 [1] (Homo sapiens, NCI-H157, 72 h) is 10 µg/mL (≈ 23.3 µM); in data set [2] (Homo sapiens, 72 h) it was 2.5 µg/mL (≈ 5.84 µM); in data set [3] (Homo sapiens, 72 h), 9 µg/mL (≈ 21 µM); in the data set with H-157 [4] (Homo sapiens, NCI-H157, 72 h), 3.2 µg/mL (≈ 7.47 µM).

Take `CC(=O)O[C@H]1C(=O)[C@@]2(C)[C@H]([C@H](OC(=O)c3ccccc3)[C@]3(O)C[C@H](OC(=O)[C@H](O)[C@@H](NC(=O)c4ccccc4)c4ccccc4)C(C)=C1C3(C)C)[C@]1(OC(C)=O)CO[C@@H]1C[C@@H]2O` [paclitaxel, reference compound]: the MTD of paclitaxel in the data set with U87MG glioblastoma (mouse, in vivo, ip) turned out to be 60 mg/kg/dose.

Consider “Conjugate (III) of M-PEG-SH 5000 and 17-dihydro-17-(1-iodoacetyl)-wortmannin [Water-soluble drug-polymer conjugate III]”, for which the “MTS Assay IC50, H-157” value with H-157 [1] is above 3 µg/mL. In data set [2], the “Thymidine Assay IC50, A549” value is above 3 µg/mL. The “MTS Assay IC50, A549” value in data set [3] was above 3 µg/mL. The “Thymidine Assay IC50, H-157” value in the data set on H-157 [4] was above 3 µg/mL. Moreover, in the data set with U87MG glioblastoma, the “Tumor Volume t/c, day 0” value is given as 1.01; the “Tumor Volume, mean, day 0” value turned out to be 137.4 mm^3; the “Tumor Volume t/c, day 4” value stood at 0.51; the “Tumor Volume, mean, day 4” value was 144.0 mm^3. For the same molecule, in the data set on U87MG glioblastoma, the “Tumor Volume t/c, day 7” value was determined as 0.37; the “Tumor Volume, mean, day 7” value turned out to be 120.2 mm^3; the “Tumor Volume t/c, day 11” value came out at 0.51; the “Tumor Volume, mean, day 11” value was 300.2 mm^3. In addition, in the data set on U87MG glioblastoma, the “Tumor Volume t/c, day 14” value is reported as 0.50; the “Tumor Volume, mean, day 14” value came to 547.0 mm^3; the “Tumor Volume t/c, day 17” value came to 0.44; the “Tumor Volume, mean, day 17” value amounted to 926.8 mm^3.

Take “Conjugate (IV) of M-PEG-SH 5000 and 11-desacetyl-11-(1-iodoacetyl)-wortmannin [Water-soluble drug-polymer conjugate IV]”: in the data set on H-157 [1], the “MTS Assay IC50, H-157” value is above 3 µg/mL. In data set [2], the “Thymidine Assay IC50, A549” value was above 3 µg/mL. The “MTS Assay IC50, A549” value in data set [3] is above 3 µg/mL. Besides, the “Thymidine Assay IC50, H-157” value in the data set on H-157 [4] is above 3 µg/mL. Also, in the data set with U87MG glioblastoma, the “Tumor Volume t/c, day 0” value stood at 0.97; the “Tumor Volume, mean, day 0” value was found to be 131.0 mm^3; the “Tumor Volume t/c, day 4” value is 0.58; the “Tumor Volume, mean, day 4” value came to 165.0 mm^3. In the data set with U87MG glioblastoma, the “Tumor Volume t/c, day 7” value amounted to 0.46; the “Tumor Volume, mean, day 7” value is given as 147.9 mm^3; the “Tumor Volume t/c, day 11” value is on record as 0.60; the “Tumor Volume, mean, day 11” value was 349.0 mm^3. Also, in the data set with U87MG glioblastoma, the “Tumor Volume t/c, day 14” value was determined as 0.64; the “Tumor Volume, mean, day 14” value is listed as 707.4 mm^3; the “Tumor Volume t/c, day 17” value was found to be 0.69; the “Tumor Volume, mean, day 17” value came out at 1454.9 mm^3.
